Tested on: human cervical carcinoma (CaSki) tumor
Assay: Anti-tumor effect of prodrug and radiation therapy, CaSki tumor-bearing mice (Example 2)
Settings: 5 Gy irradiation in three fractions plus i.v. drug (prodrug 30 mg/kg, free mitomycin C 3.3 mg/kg), 21 days, FIG. 1
Description: Tumor volume was measured for 21 days and the change in tumor volume (ratio of tumor volume at day zero to tumor volume at indicated day post injection) as a function of days post injection of the chemotherapeutic agent was measured.
Cells from a human cervical carcinoma cell line, CaSki, were injected subcutaneously (1 million cells in 200 μL 1:1 RPMI and matrigel) into the left flank of 8 week old female Nu mice. Two weeks after inoculation, mice were treated three times with 5 Gy irradiation. […] Tumor volume was measured for 21 days in all test mice.

In the case of `CO[C@@]12[C@H](COC(N)=O)C3=C(C(=O)C(C)=C(N)C3=O)N1C[C@@H]1N[C@@H]12` [free mitomycin C, mitomycin C], the “tumor growth (change in tumor volume)” value is reported as “little or no tumor growth”.

From patent US9937261B2 (LIPOMEDIX PHARMACEUTICALS LTD., priority 2014, dated 2018)
